Measurements as given in patent publication US8552002B2 (Novartis AG, priority 2004, dated 2013).

Key:
Format in all cases: biochemical
PDGFRβ = PDGFRβ (Homo sapiens, UniProt P09619); experiment: Inhibition of PDGFRβ
Protocol: Compounds selectively inhibiting the proliferation of these BCR-Abl transformed cells are tested for anti-proliferative activity on Ba/F3 cells expressing either wild type or the mutant forms of Bcr-abl. In addition, compounds are assayed to measure their capacity to inhibit FGFR35 (in an enzyme and cellular assay), FLT3, PDGFRβ, trkB, c-SRC, BMX, SGK, Tie2, Lck, JNK2α2, MKK4, c-RAF, MKK6, SAPK2α and SAPK2β kinases.

lck = target: T1, lck (Homo sapiens, UniProt P06239); experiment: Upstate KinaseProfiler radio-enzymatic filter binding assay; settings: read-out: percentage inhibition of lck
T1 construct: purchased Upstate (KinaseProfiler panel)
Protocol: (§1) Compounds of the invention are assessed for their ability to inhibit individual members of a panel of kinases (a partial, non-limiting list of kinases includes: Abl, BCR-Abl, BMX, FGFR35, Lck, JNK1, JNK2, CSK, RAF, MKK6 and P38). The compounds are tested in duplicates at a final concentration of 10 μM following this generic protocol. Note that the kinase buffer composition and the substrates vary for the different kinases included in the “Upstate KinaseProfiler™” panel. Kinase buffer (2.5 μL, 10×—containing MnCl2 when required), active kinase (0.001-0.01 Units; 2.5 μL), specific or Poly(Glu4-Tyr) peptide (5-500 μM or 0.01 mg/ml) in kinase buffer and kinase buffer (50 μM; 5 μL) are mixed in an eppendorf on ice. A Mg/ATP mix (10 μL; 67.5 (or 33.75) mM MgCl2, 450 (or 225) μM ATP and 1 μCi/μl [γ-^32P]-ATP (3000 Ci/mmol)) is added and the reaction is incubated at about 30° C. for about 10 minutes. The reaction mixture is spotted (20 μL) onto a 2 cm×2 cm P81 (phosphocellulose, for positively charged peptide substrates) or Whatman No. 1 (for Poly (Glu4-Tyr) peptide substrate) paper square. The assay squares are washed 4 times, for 5 minutes each, with 0.75% phosphoric acid and washed once with acetone for 5 minutes. The assay squares are transferred to a scintillation vial, 5 ml scintillation cocktail are added and ^32P incorporation (cpm) to the peptide substrate is quantified with a Beckman scintillation counter. Percentage inhibition is calculated for each reaction.

c-RAF = target: T2, c-RAF (Homo sapiens, UniProt P04049); experiment: as above; settings: read-out: percentage inhibition of c-RAF
T2 construct: purchased Upstate (KinaseProfiler panel)
Protocol: as §1

ROS = target: T3, ROS (Homo sapiens, UniProt P08922); experiment: as above; settings: read-out: percentage inhibition of ROS
T3 construct: purchased Upstate (KinaseProfiler panel)
Protocol: as §1

MKK6 = target: T4, MKK6 (Homo sapiens, UniProt P52564); experiment: as above; settings: read-out: percentage inhibition of MKK6
T4 construct: purchased Upstate (KinaseProfiler panel)
Protocol: as §1

wild-type Abl = target: T5, wild-type Abl (Homo sapiens, UniProt P00519); experiment: as above; settings: read-out: percentage inhibition of wild-type Abl
T5 construct: purchased Upstate (KinaseProfiler panel)
Protocol: as §1

SAPK2β = target: T6, SAPK2β (Homo sapiens, UniProt Q15759); experiment: as above; settings: read-out: percentage inhibition of SAPK2β
T6 construct: purchased Upstate (KinaseProfiler panel)
Protocol: as §1

JNK2α2 = target: T7, JNK2α2 (Homo sapiens, UniProt P45984); experiment: as above; settings: read-out: percentage inhibition of JNK2α2
T7 construct: purchased Upstate (KinaseProfiler panel)
Protocol: as §1

TrkB = target: T8, TrkB (Homo sapiens, UniProt Q16620); experiment: as above; settings: read-out: percentage inhibition of TrkB
T8 construct: purchased Upstate (KinaseProfiler panel)
Protocol: as §1

CSK = target: T9, CSK (Homo sapiens, UniProt P41240); experiment: as above; settings: read-out: percentage inhibition of CSK
T9 construct: purchased Upstate (KinaseProfiler panel)
Protocol: as §1

p70S6K = target: T10, p70S6K (Homo sapiens, UniProt P23443); experiment: as above; settings: read-out: percentage inhibition of p70S6K
T10 construct: purchased Upstate (KinaseProfiler panel)
Protocol: as §1

c-SRC = target: T11, c-SRC (Homo sapiens, UniProt P12931); experiment: as above; settings: read-out: percentage inhibition of c-SRC
T11 construct: purchased Upstate (KinaseProfiler panel)
Protocol: as §1

Tie2 = target: T12, Tie2 (Homo sapiens, UniProt Q02763); experiment: as above; settings: read-out: percentage inhibition of Tie2
T12 construct: purchased Upstate (KinaseProfiler panel)
Protocol: as §1

Sequence of PDGFRβ (P09619 33-1106, species assumed): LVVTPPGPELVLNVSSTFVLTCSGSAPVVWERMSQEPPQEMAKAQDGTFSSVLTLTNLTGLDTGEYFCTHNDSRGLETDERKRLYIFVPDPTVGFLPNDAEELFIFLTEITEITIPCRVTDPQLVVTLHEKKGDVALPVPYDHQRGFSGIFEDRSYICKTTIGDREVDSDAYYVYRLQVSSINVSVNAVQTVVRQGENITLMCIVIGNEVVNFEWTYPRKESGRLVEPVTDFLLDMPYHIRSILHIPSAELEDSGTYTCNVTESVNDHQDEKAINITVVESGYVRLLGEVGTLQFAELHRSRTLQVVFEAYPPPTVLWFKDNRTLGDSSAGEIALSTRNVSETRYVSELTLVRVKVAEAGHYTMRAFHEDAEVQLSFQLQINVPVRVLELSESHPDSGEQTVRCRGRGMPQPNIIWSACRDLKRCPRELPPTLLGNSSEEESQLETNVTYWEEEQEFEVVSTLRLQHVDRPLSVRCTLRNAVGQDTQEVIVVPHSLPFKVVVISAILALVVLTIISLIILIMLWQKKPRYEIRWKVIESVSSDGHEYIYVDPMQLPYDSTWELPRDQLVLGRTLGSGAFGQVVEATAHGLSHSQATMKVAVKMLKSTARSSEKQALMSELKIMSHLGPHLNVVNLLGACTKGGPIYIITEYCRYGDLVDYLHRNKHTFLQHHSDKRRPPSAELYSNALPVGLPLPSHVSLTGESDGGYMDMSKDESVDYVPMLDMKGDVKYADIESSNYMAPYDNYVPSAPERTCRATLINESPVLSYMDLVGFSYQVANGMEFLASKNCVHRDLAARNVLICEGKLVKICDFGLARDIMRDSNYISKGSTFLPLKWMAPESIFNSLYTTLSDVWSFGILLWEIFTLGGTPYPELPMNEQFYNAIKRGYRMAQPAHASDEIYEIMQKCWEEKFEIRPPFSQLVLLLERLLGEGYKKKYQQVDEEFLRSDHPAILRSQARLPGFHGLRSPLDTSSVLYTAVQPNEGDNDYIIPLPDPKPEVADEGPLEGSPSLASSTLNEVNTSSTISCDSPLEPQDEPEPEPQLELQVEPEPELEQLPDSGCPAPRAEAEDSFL
T9 sequence (P41240 whole entry, species assumed): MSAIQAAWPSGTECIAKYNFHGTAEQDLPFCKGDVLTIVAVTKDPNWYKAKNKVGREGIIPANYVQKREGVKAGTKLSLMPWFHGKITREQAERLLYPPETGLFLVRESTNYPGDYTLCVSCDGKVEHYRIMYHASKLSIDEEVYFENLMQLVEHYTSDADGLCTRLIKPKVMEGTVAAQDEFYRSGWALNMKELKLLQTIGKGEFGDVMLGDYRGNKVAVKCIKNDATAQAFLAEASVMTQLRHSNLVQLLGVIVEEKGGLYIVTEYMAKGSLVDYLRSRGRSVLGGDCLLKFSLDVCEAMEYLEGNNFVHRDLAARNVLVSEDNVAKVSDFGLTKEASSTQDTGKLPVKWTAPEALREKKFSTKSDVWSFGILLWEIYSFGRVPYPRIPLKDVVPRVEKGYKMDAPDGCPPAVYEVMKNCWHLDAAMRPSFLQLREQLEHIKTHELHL
T5 sequence (P00519 whole entry, species assumed): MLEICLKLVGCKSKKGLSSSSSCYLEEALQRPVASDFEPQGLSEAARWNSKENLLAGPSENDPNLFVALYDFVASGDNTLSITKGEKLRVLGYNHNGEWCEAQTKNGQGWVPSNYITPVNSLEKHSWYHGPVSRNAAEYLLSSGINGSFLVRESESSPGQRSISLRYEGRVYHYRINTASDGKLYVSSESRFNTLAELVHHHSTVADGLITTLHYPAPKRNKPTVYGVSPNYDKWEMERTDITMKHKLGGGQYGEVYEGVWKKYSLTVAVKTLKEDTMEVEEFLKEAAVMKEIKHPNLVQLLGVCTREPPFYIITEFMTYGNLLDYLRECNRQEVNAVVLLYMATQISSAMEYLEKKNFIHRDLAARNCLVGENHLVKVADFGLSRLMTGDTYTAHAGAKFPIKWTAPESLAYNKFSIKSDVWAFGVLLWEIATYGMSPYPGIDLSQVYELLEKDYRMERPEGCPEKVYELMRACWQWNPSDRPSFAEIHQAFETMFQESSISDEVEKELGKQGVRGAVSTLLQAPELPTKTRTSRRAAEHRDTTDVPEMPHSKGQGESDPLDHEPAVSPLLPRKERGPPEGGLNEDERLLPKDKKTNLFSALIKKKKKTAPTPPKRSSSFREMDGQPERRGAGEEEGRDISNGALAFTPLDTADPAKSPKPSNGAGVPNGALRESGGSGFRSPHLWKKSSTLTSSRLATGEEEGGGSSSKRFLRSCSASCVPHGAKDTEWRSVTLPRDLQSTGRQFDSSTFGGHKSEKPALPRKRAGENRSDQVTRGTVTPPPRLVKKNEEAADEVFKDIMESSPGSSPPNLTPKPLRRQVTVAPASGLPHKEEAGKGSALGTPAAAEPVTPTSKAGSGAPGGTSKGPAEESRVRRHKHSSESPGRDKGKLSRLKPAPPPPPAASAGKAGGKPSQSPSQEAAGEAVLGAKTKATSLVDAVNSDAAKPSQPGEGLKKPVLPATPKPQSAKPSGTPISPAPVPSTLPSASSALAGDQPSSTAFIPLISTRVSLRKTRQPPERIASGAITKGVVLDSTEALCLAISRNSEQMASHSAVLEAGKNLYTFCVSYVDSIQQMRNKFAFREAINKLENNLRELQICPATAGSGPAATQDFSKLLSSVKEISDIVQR
T7 sequence (P45984 whole entry): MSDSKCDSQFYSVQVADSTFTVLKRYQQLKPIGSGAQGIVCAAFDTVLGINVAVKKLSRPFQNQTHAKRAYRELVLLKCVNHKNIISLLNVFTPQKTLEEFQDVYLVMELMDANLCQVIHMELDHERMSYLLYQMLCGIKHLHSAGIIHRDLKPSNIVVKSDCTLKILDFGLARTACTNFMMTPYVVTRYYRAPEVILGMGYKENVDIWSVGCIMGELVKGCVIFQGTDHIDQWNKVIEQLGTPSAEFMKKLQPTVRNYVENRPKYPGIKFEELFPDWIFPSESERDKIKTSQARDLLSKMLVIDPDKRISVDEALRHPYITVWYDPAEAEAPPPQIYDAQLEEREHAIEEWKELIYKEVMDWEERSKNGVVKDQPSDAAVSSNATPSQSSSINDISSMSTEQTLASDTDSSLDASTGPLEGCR
T6 sequence (Q15759 whole entry): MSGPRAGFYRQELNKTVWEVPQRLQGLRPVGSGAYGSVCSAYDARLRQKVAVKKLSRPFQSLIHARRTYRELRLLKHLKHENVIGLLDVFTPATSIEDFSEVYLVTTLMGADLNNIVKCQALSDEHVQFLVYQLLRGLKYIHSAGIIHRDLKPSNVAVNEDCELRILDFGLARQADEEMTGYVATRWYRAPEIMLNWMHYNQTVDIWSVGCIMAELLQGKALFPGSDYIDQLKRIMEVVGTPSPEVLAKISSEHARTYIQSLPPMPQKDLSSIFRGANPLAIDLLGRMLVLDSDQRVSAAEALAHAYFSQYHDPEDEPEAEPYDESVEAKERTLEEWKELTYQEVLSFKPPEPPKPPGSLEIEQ
T1 sequence (P06239 whole entry, species assumed): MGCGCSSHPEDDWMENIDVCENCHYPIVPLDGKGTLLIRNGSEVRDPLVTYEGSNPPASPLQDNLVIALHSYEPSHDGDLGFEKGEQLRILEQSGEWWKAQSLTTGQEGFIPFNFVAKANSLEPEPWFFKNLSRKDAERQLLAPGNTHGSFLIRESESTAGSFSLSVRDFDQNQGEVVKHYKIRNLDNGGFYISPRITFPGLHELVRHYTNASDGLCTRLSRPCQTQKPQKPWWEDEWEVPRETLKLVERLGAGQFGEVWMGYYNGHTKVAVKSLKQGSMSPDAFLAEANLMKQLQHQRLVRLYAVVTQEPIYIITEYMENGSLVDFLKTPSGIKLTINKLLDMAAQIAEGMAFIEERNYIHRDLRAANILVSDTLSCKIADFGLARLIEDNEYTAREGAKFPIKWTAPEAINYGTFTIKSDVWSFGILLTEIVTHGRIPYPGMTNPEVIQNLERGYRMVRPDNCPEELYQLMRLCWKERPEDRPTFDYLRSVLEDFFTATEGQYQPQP
T8 sequence (Q16620 32-822): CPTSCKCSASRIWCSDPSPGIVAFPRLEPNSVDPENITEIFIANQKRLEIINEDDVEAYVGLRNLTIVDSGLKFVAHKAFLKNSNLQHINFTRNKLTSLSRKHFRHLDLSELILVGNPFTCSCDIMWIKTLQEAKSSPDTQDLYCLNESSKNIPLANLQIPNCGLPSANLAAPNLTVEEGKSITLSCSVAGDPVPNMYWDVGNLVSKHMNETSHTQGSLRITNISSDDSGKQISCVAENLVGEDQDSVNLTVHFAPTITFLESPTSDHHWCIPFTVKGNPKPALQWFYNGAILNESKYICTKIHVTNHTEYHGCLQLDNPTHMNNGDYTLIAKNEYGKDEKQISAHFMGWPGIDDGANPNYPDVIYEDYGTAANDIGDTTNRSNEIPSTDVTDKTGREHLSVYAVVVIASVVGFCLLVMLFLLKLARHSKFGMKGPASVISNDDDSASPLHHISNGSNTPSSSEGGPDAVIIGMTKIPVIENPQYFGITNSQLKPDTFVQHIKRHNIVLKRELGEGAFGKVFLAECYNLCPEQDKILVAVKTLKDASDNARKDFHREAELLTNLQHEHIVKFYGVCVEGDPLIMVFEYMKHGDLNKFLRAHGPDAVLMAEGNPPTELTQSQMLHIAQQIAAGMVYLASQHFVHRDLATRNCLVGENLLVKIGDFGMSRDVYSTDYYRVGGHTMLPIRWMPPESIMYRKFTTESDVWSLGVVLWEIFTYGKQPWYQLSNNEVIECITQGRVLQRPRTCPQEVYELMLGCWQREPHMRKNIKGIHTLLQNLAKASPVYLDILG

Cc1ccc(NC(=O)c2cccc(C(F)(F)F)c2)cc1NC(=O)N(CCCN1CCCC1=O)c1cc(N)ncn1 [Example 215, N-(3-{3-(6-Amino-pyrimidin-4-yl)-3-[3-(2-oxo-pyrrolidin-1-yl)-propyl]-ureido}-4-methyl-phenyl)-3-trifluoromethyl-benzamide]
IC50 (PDGFRβ): 2 nM | inhibition at 10 µM (lck): 100% | inhibition at 10 µM (c-RAF): 99% | inhibition at 10 µM (ROS): 95% | inhibition at 10 µM (MKK6): 88% | inhibition at 10 µM (wild-type Abl): 99% | inhibition at 10 µM (SAPK2β): 99% | inhibition at 10 µM (JNK2α2): 93% | inhibition at 10 µM (TrkB): 99% | inhibition at 10 µM (CSK): 97% | inhibition at 10 µM (p70S6K): 81% | inhibition at 10 µM (c-SRC): 100% | inhibition at 10 µM (Tie2): 100%
